According to patent EP4400508A1, “ACTIVE PEPTIDE AND USE THEREOF” (Harvest Biotech Co., Ltd, priority 2021, dated 2024):
No end group written: not given here.

System: Chicken Embryo
Experiment: Chicken embryo safety test (HET-CAM, SN/T 2329-2009), irritation score method
Settings: dose up to 500 ppm

How did the “Irritation Classification” value (HET-CAM) turn out when ESETRILLQ [EQ-9, ESETRILLQ] was run?
The value was “non-irritant”.

And the “irritation score (IS)” value (HET-CAM)?
The value was 0.35.

And the safety issue (FIG. 1)?
The safety issue was “no safety issue”.
